In publication PMC8419995, “In vitro and in vivo efficacy of thiacloprid against Echinococcus multilocularis” (Parasites & Vectors, 2021):
Where two headings read alike, the source gives them in different places.

Columns and labels:
[1] = tested on: Reuber rat hepatoma (RH) cells; assay: alamarBlue cytotoxicity assay, RH cells; type: cell-based; details: 120 h, 5 days
Description: An alamarBlue assay was used to assess the toxicity of thiacloprid to confluent and pre-confluent mammalian cells in vitro [29]. Human foreskin fibroblasts (HFF, Procell) and rat hepatoma cells (RH, Procell) were seeded into 96-well cell culture plates in DMEM supplemented with 10% FBS and 1% penicillin–streptomycin at 37 °C and 5% CO2. For detecting the growth inhibitory effects of confluent cells, HFF and RH cells were seeded at 10,000 cells per well and 50,000 cells per well, respectively. After overnight culture, thiacloprid or PZQ was added and diluted in serial concentrations (0, 0.6, 1.2, 2.5, 5, 10, 20, 40, 80 and 160 μM). For detecting growth inhibitory effects on proliferating cells, cells were seeded at 1000 (HFF) and 5000 (RH) cells per well. Thiacloprid was added after 5 h of cell attachment. To measure the viability of the cells after treatment for 5 days, the alamarBlue assay was employed and viability calculated as described previously.

[2] = tested on: E. multilocularis metacestodes; assay: Morphology of in vitro treated metacestode vesicles (light microscope, SEM, TEM); type: cell-based, Echinococcus multilocularis; details: 5 μM, 5 days
Description: The variations in the microstructure of the protoscoleces or metacestodes were observed under an electron microscope. In vitro-cultured E. multilocularis protoscoleces and metacestodes were treated with thiacloprid at 0 and 5 μM for 5 days at 37 °C and 5% CO2. They were washed twice in PBS and then fixed for 3 h with 2.5% glutaraldehyde (pH = 7.2); next, they underwent 2 h post-fixation in 2% OsO4 (SPI-CHEM, West Chester, PA, USA). Subsequently, the samples were washed in double-distilled water and treated with 1% uranyl acetate for 25 min. After the samples were washed again in double-distilled water, dehydration was conducted in ethanol at continuous gradients (30–50–70–80–90–95–100%) over a period of 10 min. For SEM analysis, the dehydrated samples were dipped into hexamethyldisiloxane and then air-dried in a fume hood. The sample was observed under a Hitachi SU8100 scanning electron microscope (Tokyo, Japan) after gold spraying. For TEM analysis, the dehydrated samples passed through a dehydrating agent, and an epoxy resin (SPI-CHEM) permeated and polymerized at 60 °C overnight. A 50-nm ultra-thin section was prepared and then loaded on a 300-mesh copper grid. It was stained with uranyl acetate and lead citrate (SPI-CHEM). The sample was observed under a Hitachi HT7700 transmission electron microscope. […]

[3] = set-up: method as in PMID 32229153; details: mice; cited from earlier work
[4] = Toxicity of thiacloprid in vivo (serum biochemistry, blood cells, histopathology); details: normal BALB/c mice, 6 weeks; for Alanine aminotransferase / Albumin / Alkaline phosphatase / Aspartate aminotransferase / Blood urea nitrogen / Creatinine / Direct bilirubin / Globulin / Indirect bilirubin / Total bilirubin / Total protein: serum; for Hemoglobin / PLT / RBC / WBC: whole blood
Description: Based on the previous thiacloprid dose concentration, we selected 15 mg/kg and 30 mg/kg thiacloprid concentrations to evaluate the toxicity in vivo [35]. The toxicity of thiacloprid was assessed in normal BALB/c mice. Normal mice were randomly divided into three groups and received the following treatments (6 animals per group): The control group was not administered any drug; the Thia15 group and Thia30 group received thiacloprid orally (15 mg/kg/day and 30 mg/kg/day). After 6 weeks of treatment, blood samples were collected from the orbital sinus of mice under anesthesia before euthanasia, which were preserved in EDTA-K2 anticoagulant tubes for white blood cell (WBC), hemoglobin (Hb) and platelet (PLT) analysis. For assessing biochemical indicators, blood samples were incubated in anticoagulant-free tubes at 37 °C for 1 h, followed by 3500 rpm centrifugation for 10 min. The isolated serum samples were used to detect relative levels of alanine aminotransferase (ALT), aspartate aminotransferase (AST), total bilirubin (TBIL), direct bilirubin (DBIL), indirect bilirubin (IBIL), total protein (TP), albumin (ALB), alkaline phosphatase (ALP), creatinine (CREA) and blood urea nitrogen (BUN). Subsequently, mice were sacrificed for harvesting the liver and kidneys, which were fixed in 4% paraformaldehyde, prepared for hematoxylin–eosin (HE) staining and observed under a Zeiss Vert.A1 microscope.
Tissues from experimental animals were washed in PBS and fixed in 4% paraformaldehyde at room temperature for […]. On the next day, they were dehydrated, embedded, and sliced into 5-μm sections. After dewaxing and dehydrating, sections were stained with hematoxylin for 2–5 min, and re-stained with eosin for 15 s. They were sealed with neutral gum and observed under a BX51 microscope (Olympus, Tokyo, Japan).

[5] = tested on: E. multilocularis metacestodes; assay: PGI assay (phosphoglucose isomerase release) on metacestode vesicles; type: cell-based, Echinococcus multilocularis
Description: The efficacy of thiacloprid against the E. multilocularis metacestode was evaluated by applying a phosphoglucose isomerase (PGI) assay that measures the release of the enzyme phosphoglucose isomerase upon physical impairment of metacestodes. In brief, medium without phenol red (DMEM, 1% penicillin/streptomycin sulfate, 2 mM L-glutamine) was added to the same volume of vesicles and distributed to 48-well (12–15 per vesicles) plates. Subsequently, metacestodes were incubated for 5 days with different concentrations (0, 0.06, 1.2, 2.5, 5, 10, 20, 40, 80 and 160 μM) of thiacloprid or praziquantel (PZQ), after which PGI release was quantified exactly as described in Stadelmann et al.. Triton X-100 (0.1% in PBS) was applied as a positive control (maximal release of vesicle fluid). Each condition was tested in biological triplicate. After 5 days of incubation, 200 μl medium supernatant was collected from each well and stored at − 20 °C until further measurements were performed. PGI measurements were performed as described earlier, except that an Infinite M200 PRO reader (Tecan, Männedorf, Switzerland) was used to measure the increase in absorbance at 340 nm. PGI activity was calculated using the EC50 calculator (https://www.aatbio.com/tools/ec50-calculator) from the linear regression of the enzyme reaction over time and presented as a percentage relative to the values obtained by treatment of vesicles with 0.1% Triton X-100.

Question: Which IC50 ([1]; confluent cells, read-out: IC50 on confluent RH cells) does the source give for `N#C/N=C1\SCCN1Cc1ccc(Cl)nc1` [thiacloprid] here?
Answer: The IC50 was 91.4 ± 1.33 µM.

Question: What about the IC50 ([1]; pre-confluent cells, read-out: IC50 on pre-confluent RH cells) of the same compound?
Answer: The IC50 was 74.3 ± 10.8 µM.

Question: What about the “Morphological alterations of metacestode vesicles under a light microscope” value [2] of the same compound?
Answer: The value was “contraction and collapse”.

Question: What about the “TEM of metacestode vesicles” value [2] of the same compound?
Answer: Its value is “obvious ultrastructural damage”.

Question: And the “Dose that induced obvious hepatocellular hypertrophy and cytoplasm degeneration” value [3]?
Answer: Its value is “more than 108 mg/kg”.

Question: What about the Alanine aminotransferase ([4]; 15 mg/kg/day orally) of the same compound?
Answer: Its Alanine aminotransferase is 66.00 ± 5.33 U/L.

Question: What about the Albumin ([4]; 15 mg/kg/day orally) of the same compound?
Answer: The Albumin was 28.95 ± 2.35 g/L.

Question: What about the Alkaline phosphatase ([4]; 15 mg/kg/day orally) of the same compound?
Answer: Its Alkaline phosphatase is 57.67 ± 5.43 U/L.

Question: And the Aspartate aminotransferase ([4]; 15 mg/kg/day orally)?
Answer: The Aspartate aminotransferase was 164.70 ± 36.71 U/L.

Question: And the Blood urea nitrogen ([4]; 15 mg/kg/day orally)?
Answer: Its Blood urea nitrogen is 7.23 ± 1.87 mmol/L.

Question: What about the Creatinine ([4]; 15 mg/kg/day orally) of the same compound?
Answer: Its Creatinine is 16.08 ± 1.87 μM/L.

Question: What about the Direct bilirubin ([4]; 15 mg/kg/day orally) of the same compound?
Answer: The Direct bilirubin was 0.13 ± 0.05 μM/L.

Question: And the Globulin ([4]; 15 mg/kg/day orally)?
Answer: The Globulin was 36.67 ± 4.71 g/L.

Question: And the Indirect bilirubin ([4]; 15 mg/kg/day orally)?
Answer: Its Indirect bilirubin is 0.44 ± 0.17 μM/L.

Question: What about the Total bilirubin ([4]; 15 mg/kg/day orally) of the same compound?
Answer: The Total bilirubin was 0.60 ± 0.10 μM/L.

Question: And the Total protein ([4]; 15 mg/kg/day orally)?
Answer: The Total protein was 65.90 ± 4.76 g/L.

Question: And the Hemoglobin ([4]; 15 mg/kg/day orally)?
Answer: The Hemoglobin was 203.00 ± 11.15 g/L.

Question: What about the PLT ([4]; 15 mg/kg/day orally) of the same compound?
Answer: Its PLT is 613.70 ± 145.00 10^9/L.

Question: And the RBC ([4]; 15 mg/kg/day orally)?
Answer: The RBC was 11.39 ± 1.48 10^12/L.

Question: And the WBC ([4]; 15 mg/kg/day orally)?
Answer: Its WBC is 11.69 ± 1.30 10^9/L.

Question: And the Alanine aminotransferase ([4]; 30 mg/kg/day orally)?
Answer: The Alanine aminotransferase was 67.50 ± 5.01 U/L.

Question: And the Albumin ([4]; 30 mg/kg/day orally)?
Answer: Its Albumin is 29.72 ± 1.49 g/L.

Question: And the Alkaline phosphatase ([4]; 30 mg/kg/day orally)?
Answer: Its Alkaline phosphatase is 58.50 ± 7.82 U/L.

Question: What about the Aspartate aminotransferase ([4]; 30 mg/kg/day orally) of the same compound?
Answer: Its Aspartate aminotransferase is 180.50 ± 45.71 U/L.

Question: And the Blood urea nitrogen ([4]; 30 mg/kg/day orally)?
Answer: Its Blood urea nitrogen is 7.15 ± 0.47 mmol/L.

Question: And the Creatinine ([4]; 30 mg/kg/day orally)?
Answer: The Creatinine was 15.18 ± 2.44 μM/L.

Question: And the Direct bilirubin ([4]; 30 mg/kg/day orally)?
Answer: Its Direct bilirubin is 0.19 ± 0.16 μM/L.

Question: And the Globulin ([4]; 30 mg/kg/day orally)?
Answer: Its Globulin is 37.77 ± 4.81 g/L.

Question: And the Indirect bilirubin ([4]; 30 mg/kg/day orally)?
Answer: Its Indirect bilirubin is 0.42 ± 0.19 μM/L.

Question: And the Total bilirubin ([4]; 30 mg/kg/day orally)?
Answer: The Total bilirubin was 0.59 ± 0.16 μM/L.

Question: And the Total protein ([4]; 30 mg/kg/day orally)?
Answer: The Total protein was 65.82 ± 4.39 g/L.

Question: What about the Hemoglobin ([4]; 30 mg/kg/day orally) of the same compound?
Answer: Its Hemoglobin is 206.0 ± 9.93 g/L.

Question: And the PLT ([4]; 30 mg/kg/day orally)?
Answer: The PLT was 670.80 ± 150.20 10^9/L.

Question: And the RBC ([4]; 30 mg/kg/day orally)?
Answer: Its RBC is 9.58 ± 0.82 10^12/L.

Question: What about the WBC ([4]; 30 mg/kg/day orally) of the same compound?
Answer: Its WBC is 12.72 ± 1.75 10^9/L.

Question: What about the “Histopathological examination of liver and kidneys (HE staining)” value ([4]; 15 and 30 mg/kg/day orally) of the same compound?
Answer: The value was “did not show obvious histopathological changes or injury”.

Question: What about the “Activity in PGI assay screening” value ([5]; 20 μM, 5 days and 12 days, active if exceeding 20% relative PGI release) of the same compound?
Answer: Its value is “showed activity”.

Question: What about the EC50 ([5]; Echinococcus multilocularis, 120 h, read-out: EC50 against E. multilocularis metacestode by the PGI assay) of the same compound?
Answer: The EC50 was 4.54 ± 1.1 µM.
